Test results from ChEMBL document CHEMBL1201862, “PubChem BioAssay data set” (2004).
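96-well plates; 48 h exposure; 5 concentrations. Endpoints by linear interpolation between flanking doses. Not reached: highest tested concentration assigned. Abbreviation: GI50, concentration required for 50% inhibition of growth.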 The source made the active and inactive calls. No stated cut-off is given here; in the data, active = GI50 up to about 1.1 µM and inactive = higher.

Assays:
Test in all cases: inhibition of tumour cell growth, NCI panel, 48 h
NCI-H522 = test system: NCI-H522
M14 = test system: M14
RPMI-8226 = test system: RPMI-8226
UACC-62 = test system: UACC-62
OVCAR-8 = test system: OVCAR-8
SF-539 = test system: SF-539
A549 = test system: A549
HOP-92 = test system: HOP-92
LXFL 529 = test system: LXFL 529
SF-268 = test system: SF-268
HCT-116 = test system: HCT-116
IGROV-1 = test system: IGROV-1
HL-60 = test system: HL-60
SW-620 = test system: SW-620
SK-OV-3 = test system: SK-OV-3
EKVX = test system: EKVX
OVCAR-4 = test system: OVCAR-4

Measured: GI50

N#CC1(Cc2ccccc2Cl)c2ccccc2C=CN1C(=O)c1ccccc1 (stereo not given)
inactive: NCI-H522 86.1 µM | M14 > 100 µM | RPMI-8226 66.5 µM | UACC-62 > 100 µM | OVCAR-8 > 100 µM | SF-539 > 100 µM | A549 90.8 µM | HOP-92 52.7 µM | LXFL 529 43.1 µM | SF-268 > 100 µM | HCT-116 > 100 µM | IGROV-1 > 100 µM | HL-60 29 µM | SW-620 > 100 µM | SK-OV-3 > 100 µM | EKVX > 100 µM

FC(F)(F)C1(Cl)C(c2ccccc2)=C1c1ccccc1
inactive: M14 12.8 µM | OVCAR-4 13.5 µM | RPMI-8226 29.7 µM | UACC-62 14 µM | OVCAR-8 14.9 µM | SF-539 15.6 µM | A549 15.1 µM | HOP-92 14.8 µM | LXFL 529 13.4 µM | SF-268 16.9 µM | HCT-116 13.9 µM | IGROV-1 15.5 µM | HL-60 7.73 µM | SW-620 13.4 µM | SK-OV-3 18.2 µM | EKVX 16.1 µM

O=C1SC(c2ccccc2)(c2ccccc2)c2ccccc21
inactive: NCI-H522 68.4 µM | M14 64.6 µM | OVCAR-4 92.5 µM | RPMI-8226 45.5 µM | UACC-62 68.1 µM | OVCAR-8 > 100 µM | SF-539 > 100 µM | A549 50.9 µM | LXFL 529 > 100 µM | SF-268 > 100 µM | HCT-116 > 100 µM | IGROV-1 > 100 µM | HL-60 41.3 µM | SW-620 71.6 µM | SK-OV-3 > 100 µM | EKVX 63.5 µM

O=C(O)C(CS)NCc1c2ccccc2[n+]([O-])c2ccccc12 (stereo not given)
inactive: NCI-H522 94 µM | M14 46.1 µM | OVCAR-4 24.9 µM | RPMI-8226 26.3 µM | UACC-62 47.4 µM | OVCAR-8 30.4 µM | A549 > 100 µM | HOP-92 2.49 µM | LXFL 529 23.8 µM | SF-268 23 µM | HCT-116 5.87 µM | IGROV-1 33.2 µM | HL-60 23.8 µM | SW-620 27.4 µM | SK-OV-3 > 100 µM | EKVX 54.3 µM

COc1cc2c(cc1OC)-c1c3cc(O)ccc3nn[n+]1CC2
inactive: NCI-H522 > 100 µM | M14 > 100 µM | OVCAR-4 > 100 µM | RPMI-8226 > 100 µM | UACC-62 > 100 µM | OVCAR-8 > 100 µM | SF-539 > 100 µM | A549 > 100 µM | LXFL 529 > 100 µM | SF-268 > 100 µM | HCT-116 > 100 µM | IGROV-1 > 100 µM | HL-60 > 100 µM | SW-620 > 100 µM | SK-OV-3 > 100 µM | EKVX > 100 µM
